Among the data in US8178668B2, “2-aminopyridine kinase inhibitors” (OSI Pharmaceuticals, LLC, priority 2008, dated 2012) are IC50 values, retold here.

In assay [1] the target is RON (human) (Homo sapiens, UniProt Q04912). Nature of the assay: RON kinase AlphaScreen assay (Km of ATP). The class given is biochemical. The settings on record: ATP at Km; at least duplicate experiments. In a few lines:
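Human RON phosphorylated biotinylated poly(Glu,Tyr) (200 ng/μL) at Km ATP in 50 mM HEPES pH 7.4, 12.5 mM MgCl2, 1% glycerol, 0.334 mM vanadate, 1% DMSO. Reaction ran 30 min at RT after enzyme addition. Product was detected by AlphaScreen with PT66 beads after 1 h.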

The target of assay [2] is MET (human) (Homo sapiens, UniProt P08581). Nature of the assay: MET kinase AlphaScreen assay (Km of ATP). The class given is biochemical. The settings on record: ATP at Km; at least duplicate experiments. The essentials:
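Biotinylated poly(Glu,Tyr) (200 ng/μL) phosphorylated by MET with ATP at an enzyme-optimized level, in 50 mM HEPES pH 7.4 with Mg2+/Mn2+ and vanadate, 1% DMSO. Reaction runs 60 min at RT. PT66 AlphaScreen donor/acceptor beads are added and signal is read after 1 h.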

Where a name gives a salt, the structure may show the parent alone.

Sequence of MET (human) (P08581 25-1390): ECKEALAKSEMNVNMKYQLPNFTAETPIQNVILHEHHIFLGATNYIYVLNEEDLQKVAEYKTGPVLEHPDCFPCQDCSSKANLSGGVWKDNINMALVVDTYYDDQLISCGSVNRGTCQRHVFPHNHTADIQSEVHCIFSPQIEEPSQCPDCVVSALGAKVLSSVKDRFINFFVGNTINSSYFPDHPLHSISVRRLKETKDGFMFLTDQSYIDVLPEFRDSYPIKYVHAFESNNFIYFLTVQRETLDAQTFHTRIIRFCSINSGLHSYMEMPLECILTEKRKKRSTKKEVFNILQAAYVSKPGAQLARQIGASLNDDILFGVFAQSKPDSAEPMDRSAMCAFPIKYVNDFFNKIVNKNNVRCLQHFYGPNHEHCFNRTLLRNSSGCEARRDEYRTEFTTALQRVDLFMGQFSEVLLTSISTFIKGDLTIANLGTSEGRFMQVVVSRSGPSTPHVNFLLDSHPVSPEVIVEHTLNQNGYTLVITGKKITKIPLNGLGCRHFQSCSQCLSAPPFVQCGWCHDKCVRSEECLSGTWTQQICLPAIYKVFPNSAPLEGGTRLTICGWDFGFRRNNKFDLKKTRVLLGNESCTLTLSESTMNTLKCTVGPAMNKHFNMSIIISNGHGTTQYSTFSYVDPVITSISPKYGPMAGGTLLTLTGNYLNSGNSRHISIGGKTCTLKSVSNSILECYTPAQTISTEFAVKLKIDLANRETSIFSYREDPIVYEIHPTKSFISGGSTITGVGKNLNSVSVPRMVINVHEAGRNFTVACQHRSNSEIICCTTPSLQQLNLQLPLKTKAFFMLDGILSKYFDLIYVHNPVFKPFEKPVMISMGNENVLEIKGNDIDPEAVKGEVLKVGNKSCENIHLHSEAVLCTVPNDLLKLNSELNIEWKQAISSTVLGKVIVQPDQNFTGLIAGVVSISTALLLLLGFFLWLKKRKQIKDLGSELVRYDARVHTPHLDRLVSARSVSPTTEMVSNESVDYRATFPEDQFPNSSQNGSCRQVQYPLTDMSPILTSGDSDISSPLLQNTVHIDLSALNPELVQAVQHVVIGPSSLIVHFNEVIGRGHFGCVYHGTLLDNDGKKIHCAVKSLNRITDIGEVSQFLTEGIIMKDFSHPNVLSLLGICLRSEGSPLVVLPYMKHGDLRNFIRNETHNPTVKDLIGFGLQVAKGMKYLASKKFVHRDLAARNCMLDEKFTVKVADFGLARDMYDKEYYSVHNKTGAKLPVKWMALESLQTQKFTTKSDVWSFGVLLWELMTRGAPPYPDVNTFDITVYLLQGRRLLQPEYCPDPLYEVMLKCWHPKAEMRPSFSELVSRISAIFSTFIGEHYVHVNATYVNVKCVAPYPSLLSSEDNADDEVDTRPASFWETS
Sequence of RON (human) (Q04912 25-1400): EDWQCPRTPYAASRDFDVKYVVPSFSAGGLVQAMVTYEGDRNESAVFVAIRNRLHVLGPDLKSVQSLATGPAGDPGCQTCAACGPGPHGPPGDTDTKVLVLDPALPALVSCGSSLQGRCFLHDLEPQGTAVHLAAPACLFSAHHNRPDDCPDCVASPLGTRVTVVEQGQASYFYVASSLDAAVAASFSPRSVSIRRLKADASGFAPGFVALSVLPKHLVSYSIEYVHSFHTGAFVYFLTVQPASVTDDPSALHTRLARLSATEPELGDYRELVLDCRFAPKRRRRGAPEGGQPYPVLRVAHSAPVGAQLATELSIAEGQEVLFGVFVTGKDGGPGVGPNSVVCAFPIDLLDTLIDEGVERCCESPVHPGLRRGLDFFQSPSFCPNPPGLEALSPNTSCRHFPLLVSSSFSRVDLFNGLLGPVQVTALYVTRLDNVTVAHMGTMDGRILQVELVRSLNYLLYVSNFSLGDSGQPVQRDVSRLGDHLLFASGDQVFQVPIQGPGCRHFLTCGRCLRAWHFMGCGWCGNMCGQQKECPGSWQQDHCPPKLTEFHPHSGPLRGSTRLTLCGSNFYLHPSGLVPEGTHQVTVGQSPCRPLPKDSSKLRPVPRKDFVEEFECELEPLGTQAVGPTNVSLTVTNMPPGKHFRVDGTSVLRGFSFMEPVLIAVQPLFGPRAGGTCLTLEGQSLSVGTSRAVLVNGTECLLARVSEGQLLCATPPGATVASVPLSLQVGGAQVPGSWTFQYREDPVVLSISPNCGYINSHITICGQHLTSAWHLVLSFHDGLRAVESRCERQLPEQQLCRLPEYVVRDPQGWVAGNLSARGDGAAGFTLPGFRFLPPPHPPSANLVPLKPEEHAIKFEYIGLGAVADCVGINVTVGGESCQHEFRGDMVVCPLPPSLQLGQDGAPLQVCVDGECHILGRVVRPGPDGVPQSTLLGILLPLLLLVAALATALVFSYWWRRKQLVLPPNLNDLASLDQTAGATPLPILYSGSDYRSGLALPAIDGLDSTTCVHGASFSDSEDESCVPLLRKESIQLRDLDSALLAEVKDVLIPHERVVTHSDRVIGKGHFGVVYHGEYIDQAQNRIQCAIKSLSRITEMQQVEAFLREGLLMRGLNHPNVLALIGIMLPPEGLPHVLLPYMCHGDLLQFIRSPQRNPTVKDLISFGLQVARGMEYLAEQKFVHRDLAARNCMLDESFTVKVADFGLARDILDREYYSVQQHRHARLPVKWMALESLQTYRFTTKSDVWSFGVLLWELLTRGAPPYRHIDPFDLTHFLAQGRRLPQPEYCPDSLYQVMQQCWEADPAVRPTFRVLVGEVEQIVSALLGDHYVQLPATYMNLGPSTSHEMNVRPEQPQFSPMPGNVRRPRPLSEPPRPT

`C[C@@H]1CN(C(=O)c2cccc(-c3cnc(N)c(-c4nc5ccccc5s4)c3)c2)C[C@H](C)N1` [Example 208, [3-(6-Amino-5-benzothiazol-2-ylpyridin-3-yl)phenyl]-(cis-3,5-dimethylpiperazin-1-yl)methanone]: the 50% inhibitory concentration (IC50) was 1000 to 20000 nM in assay [1] and 100 to 1000 nM in assay [2].
For `Nc1ncc(C2=CCNCC2)cc1-c1nc2ccccc2s1` [Example 232, 5-(1,3-Benzothiazol-2-yl)-1′,2′,3′,6′-tetrahydro-3,4′-bipyridin-6-amine], in that order: 1000 to 20000 nM and 100 to 1000 nM.
On to `Nc1ncc(-c2cnn(CCC(=O)N3CCOCC3)c2)cc1-c1nc2ccccc2s1` [Example 291, 3-[4-(6-Amino-5-benzothiazol-2-ylpyridin-3-yl)-pyrazol-1-yl]-1-morpholin-4-ylpropan-1-one], for which the IC50 in assay [1] was > 20000 nM; in assay [2], 1000 to 20000 nM.
The corresponding values for `Nc1ncc(-c2cnn(C3CCNCC3)c2)cc1-c1cc2c(Br)ccc(F)c2cn1` [Example 7, 3-(5-Bromo-8-fluoroisoquinolin-3-yl)-5-(1-piperidin-4-yl-1H-pyrazol-4-yl)-pyridin-2-ylamine trihydrochloride] are 100 to 1000 nM and ≤ 100 nM.
For `Cc1ccc2nc(-c3cc(-c4cnn(C5CCNCC5)c4)cnc3N)sc2c1` [Example 254, 3-(6-Methylbenzothiazol-2-yl)-5-(1-piperidin-4-yl-1H-pyrazol-4-yl)-pyridin-2-ylamine], in that order: 100 to 1000 nM and 100 to 1000 nM.
